Activity calls are given as the source filed them.
Tests used:
Assay type in all cases: functional, cell-based
Conditions in all cases: Rattus norvegicus
[1] = system: NSC; experiment: Decrease in viability of NSC cells at 18.76 uM for 24 hrs in presence of bFGF
[2] = system: NSC; experiment: Decrease in viability of NSC cells at 37.53 uM for 48 hrs in presence of bFGF
[3] = system: NSC; experiment: Decrease in viability of NSC cells at 56.29 uM for 72 hrs in presence of bFGF
[4] = system: NSC; experiment: Induction of apoptosis in NSC cells by TUNEL assay
[5] = system: NSC; experiment: Induction of necrosis in NSC cells assessed as lactate dehydrogenase release at 56.29 uM within 72 hrs relative to control
[6] = system: NSC; experiment: Inhibition of reactive oxygen species accumulation in NSC cells relative to control

Measured: Activity

S=C(S)OC1CC2CC1C1CCCC21 (stereo unspecified)
inactive: [5]
active: all other assays above

— ChEMBL document CHEMBL1146877, “D609 blocks cell survival and induces apoptosis in neural stem cells” (Bioorg Med Chem Lett, 2006)
